{"source": "patent US20040028639A1", "about": "“Cholesterol sulfate compositions for enhancement of stratum corneum function” (priority 1999, published 2004)", "key": {"Matek skin equivalents": {"test_system": "Matek skin equivalents", "test": "stratum corneum thickness and cohesion in skin equivalents (histology)", "type": "cell-based", "protocol": "FIG. 1 illustrates the condition of stratum corneum thickness under different cholesterol sulfate treatment regimens, as described in Example I: (A) control (no treatment); (B) 1% ethanol vehicle control; (C) cholesterol sulfate, 0.01 μg/ml; (D) cholesterol sulfate, 0.1 μg/ml; (E) cholesterol sulfate, 1 μg/ml; (F) cholesterol sulfate 10 μg/ml.\nThis example illustrates the ability of cholesterol sulfate to retard desquamation and maintain stratum corneum thickness.\nMatek skin equivalents are obtained and prepared for use in accordance with the supplier's protocol. Equilibrated skins are treated topically with dilutions of cholesterol sulfate. Cholesterol sulfate is solubilized 1 mg/ml in ethanol, and serially diluted 10-fold to yield doses of 0.01, 0.1, 1 and 10 μg/ml. Each dose is added topically to an equivalent, using a 100 μl volume. Treatment is repeated daily along with media replacement over a three day period. One sample is treated with 1% ethanol, representing a vehicle control. Following treatment, equivalents are fixed according to standard protocol, and sent for histological preparations. FIGS. 1A-F show stained sections of the two controls plus the treatment samples. […] Some compaction is seen in the ethanol treated sample, which is believed due to dehydration of the sample combined with lipid removal."}, "[1]": {"test_system": "skin (back of hand), stratum corneum", "test": "skin flakiness by D-Squame Discs Method and Image Analysis", "type": "in vivo, human", "settings": "0.5% cholesterol sulfate in a water and oil emulsion base, right hand, twice a day", "protocol": "A study is conducted to determine the effect of cholesterol sulfate on skin flakiness, as an indicator of its effect in reducing desquamation. Fifteen subjects between the ages of 21 and 65 years are selected for the study. The subjects report for the study without moisturizers or any other products on their hands and their baseline measurements are taken. The subjects are given a product containing 0.5% cholesterol sulfate in a water and oil emulsion base to take home and self-administer on their right hands only, twice a day in the morning after washing and in the evening at least 15 minutes before bedtime for four weeks. The left hand serves as the untreated control site. The subjects are only allowed to use the test product and specifically log its use in a daily diary. At the end of two and four weeks the subjects return for testing without applying the product for at least 12 hours and they are re-evaluated under the same conditions.\nEvaluation of flakiness is determined via the D-Squame Discs Method and Image Analysis. Briefly, four D-Squame discs are firmly pressed on the back of each hand with hand held uniform pressure device and removed by gently pulling away from the skin. […] Desquamation is evaluated from the D-Squame discs via the image analyzer. […]\nAn OPTIMA image analyzer is used to evaluate skin flakiness. […] The average Gray Value corresponding to the sample density is measured. […]"}}, "note": "Structures can show the parent of a compound that is named as a salt."}
{"compound": "CC(C)CCC[C@@H](C)[C@H]1CC[C@H]2[C@@H]3CC=C4C[C@@H](OS(=O)(=O)O)CC[C@]4(C)[C@H]3CC[C@]12C", "note": "[cholesterol sulfate]", "values": [{"measurement": "organization and cohesion of the stratum corneum (stained sections)", "setting": "Matek skin equivalents; 0.01, 0.1, 1 and 10 μg/ml, 100 μl topically, daily over three days, vs media control, effect increases with amount", "value": "gradual increase in organization and cohesion of the stratum corneum"}, {"measurement": "thickness of the layers of the stratum corneum", "setting": "Matek skin equivalents; application to skin cells, FIGS. 1C-F (0.01-10 μg/ml)", "value": "distinct, dose-dependent, increase in the thickness"}, {"measurement": "decrease in flakiness relative to baseline", "setting": "[1]; after 4 weeks", "value": 24.1, "unit": "%"}, {"measurement": "decrease in flakiness relative to baseline", "setting": "[1]; after two weeks", "value": 22.5, "unit": "%"}]}
